IC50 data for 80 compounds are collected here from ChEMBL document CHEMBL2150877, “γ-Secretase modulators as potential disease modifying anti-Alzheimer's drugs” (J Med Chem, 2011).

The test is described as follows: Inhibition of gamma secretase assessed as reduction in Abeta42 production.
As usually defined, the IC50 is the concentration that gives 50% inhibition. Regarding `COc1cc(/C=C/c2nc3n(n2)CCC[C@@H]3c2cccc(F)c2)ccc1-n1cnc(C)c1`, the IC50 was 28 nM.

Turning to `CC(C)CC(C(=O)O)c1cc(Cl)c(OCC2CC2)c(-c2ccc3nonc3c2)c1` (stereo not given), the IC50 was found to be 274 nM.

Take `COc1cc(/C=C2\CC[C@H]3CCC[C@@H](c4cc(F)c(F)c(F)c4)N3C2=O)ccc1-n1cnc(C)c1`: the IC50 stood at 33 nM.

As to `Cc1cn(-c2ccc(/C=C3\OC(C)(C)CN([C@H](c4cc(F)c(F)c(F)c4)[C@@H](C)O)C3=O)cc2F)cn1`, the IC50 turned out to be 41 nM.

In the case of `COc1cc(-c2cn(C3CCc4c(F)cccc4N(CC(F)(F)F)C3=O)nn2)ccc1Nc1cccnc1` (stereo not given), the IC50 turned out to be 226 nM.

Consider `CC(C)CC(C(=O)O)c1cc(-c2ccc(C(F)(F)F)cc2)cc(N(C)c2cc(F)cc(F)c2)c1` (stereo not given), for which the IC50 is 450 nM.

As to `CC(C)CC(C(=O)O)c1cc(/C=C/c2cc(F)cc(F)c2)cc(-c2ccc(C(F)(F)F)cc2)c1` (stereo not given), the IC50 came out at 450 nM.

As to `COc1cc(C2CN(C(C)=O)CC3(CCCN(C(C)c4ccc(F)cc4)C3=O)C2)ccc1-n1cnc(C)c1` (stereo not given), the IC50 was more than 200 nM.

In the case of `COc1nc(-c2nc3n(n2)CCC[C@@H]3c2cc(N(CC3CC3)CC3CC3)ccc2Cl)ccc1-n1cnc(C)c1`, the IC50 came out at 4 nM.

For `CSc1ccc(/C=C2/C(C)=C(CC(=O)O)c3cc(F)ccc32)cc1` [SULINDAC SULFIDE], the IC50 turned out to be 34000 nM.

As for `CCCC1CCCCN1c1cc(-c2ccc(C(F)(F)F)cc2)cc(C(CC(C)C)C(=O)O)c1` (stereo not given), the IC50 was determined as 430 nM.

As to `CC(C)CC(C(=O)O)c1cc(/C=C/c2ccc(-c3ccccc3)cc2)cc(-c2ccc(Cl)c(C(F)(F)F)c2)c1` (stereo not given), the IC50 was determined as 150 nM.

Consider `COc1cc(/C=C2\CCCN([C@H](c3cc(F)c(F)c(F)c3)[C@@H](C)O)C2=O)ccc1-n1cnc(C)n1`, for which the IC50 came to 60 nM.

Consider `COc1cc(/C=C2\CCCN(Cc3cccc(F)c3)C2=O)ccc1-n1cnc(C)c1`, for which the IC50 is 200 nM.

For the compound `COc1cc(Nc2nc(C)c(Cc3cccc(Cl)c3)s2)ccc1-n1cnc(C)c1`, the IC50 amounted to 210 nM.

For `COc1cc(C)c(Nc2nc(-c3ccc(-n4cnc(C)c4)c(OC)n3)n[nH]2)cc1C(C)C`, the IC50 worked out at 8 nM.

With `COc1cc(C(O)c2c(OC)cnn([C@@H](C)c3ccc(F)cc3)c2=O)ccc1-n1cnc(C)c1` (stereo not given in full), the IC50 stood at 7100 nM.

For the compound `COc1cc(NC(=O)Nc2cc(Cl)ccc2C)ccc1-c1ccnc(C)c1`, the IC50 worked out at 670 nM.

Consider `COCc1cc(F)ccc1[C@H]1CCCn2nc(/C=C/c3ccc(-n4cnc(C)c4)c(OC)c3)nc21`, for which the IC50 was determined as 12 nM.

`CC(C)CC(C(=O)O)c1cc(-c2ccc(C(F)(F)F)cc2)cc(C2CCCC(C(F)(F)F)N2C)c1` (stereo not given): the IC50 came to 420 nM.

Regarding `COc1cc(Nc2ncc3c(n2)C(c2ccccc2)CCC3)ccc1-n1cnc(C)c1` (stereo not given), the IC50 came to 840 nM.

Turning to `CC(C)CC(C(=O)O)c1cc(-c2ccc(C(F)(F)F)cc2)cc(C2CCCC(C(F)(F)F)N2Cc2ccc(C(F)(F)F)cc2)c1` (stereo not given), the IC50 was 310 nM.

Regarding `CCC[C@H](C(=O)O)c1cc(OCc2ccccc2)cc(-c2ccc(C(F)(F)F)cc2)c1`, the IC50 turned out to be 2500 nM.

Consider `N#Cc1cc(Nc2nc3n(n2)CCCC3c2ccc(F)cc2)ccc1-n1cnc(Cl)c1` (stereo not given), for which the IC50 was 110 nM.

Consider `COc1cc(-c2cn(C3CCc4c(F)cccc4N(CC(F)(F)F)C3=O)nn2)ccc1C#Cc1ccnc(C)c1` (stereo not given), for which the IC50 stood at 83 nM.

As for `CC(C)CC(C(=O)O)c1cc(Cl)c(OCC2CC2)c(-c2ccc(C(F)(F)F)cc2)c1` (stereo not given), the IC50 is 69 nM.

With `CC(C)CC(C(=O)O)c1cc(-c2ccc(C(F)(F)F)cc2)cc(-c2cc(C(F)(F)F)cc(C(F)(F)F)c2)c1` (racemic), the IC50 stood at 80 nM.

As for `COc1cc(Nc2cccc3c2nc(-c2ccc(F)cc2)n3C)ccc1-n1cnc(C)c1`, the IC50 was found to be 21 nM.

For `COc1cc(Nc2nc3c(c(Cc4ccccc4)n2)CN(CCO)CC3)ccc1-n1cnc(C)c1`, the IC50 came to 25 nM.

For `COc1cc(/C=C2\CCCn3c(-c4ccc(F)cc4)cnc32)ccc1-n1cnc(C)c1`, the IC50 was 170 nM.

Consider `CC(C)CCN1C(c2cc(-c3ccc(C(F)(F)F)cc3)cc(C(CC(C)C)C(=O)O)c2)CCCC1C(F)(F)F` (stereo not given), for which the IC50 stood at 110 nM.

As to `COc1cc(Nc2nc(OC(C)C)nc(N(C)c3ccc(Cl)cc3)n2)ccc1-n1cnc(C)c1`, the IC50 came to 120 nM.

In the case of `COc1cc(NC(=O)C(C)c2ccc3c(c2)[nH]c2ccc(Cl)cc23)ccc1-c1ccnc(C)c1` (stereo not given), the IC50 was determined as 108 nM.

`CC(C)CC(C(=O)O)c1cc(CCc2ccc(-c3ccccc3)cc2)cc(-c2ccc(Cl)c(C(F)(F)F)c2)c1` (stereo not given): the IC50 is 210 nM.

On to `COc1cc(NC(=O)C(C)c2cccc(F)n2)ccc1-c1ccnc(C)c1` (stereo not given), for which the IC50 turned out to be 557 nM.

Regarding `COCCN(Cc1cccc2ccccc12)C(=O)/C=C/c1ccc(-n2cnc(C)c2)c(OC)c1`, the IC50 was 60 nM.

On to `COc1cc(Nc2ncc3c(n2)C(c2ccccc2)CCC3)ccc1-c1cnn(C)c1` (stereo not given), for which the IC50 turned out to be 240 nM.

For `COc1cc(C)c(Cc2nc(-c3ccc(-n4cnc(C)c4)c(OC)n3)n[nH]2)cc1C(C)C`, the IC50 was found to be 11 nM.

Consider `CC(C)CC(C(=O)O)c1cc(Cc2cc(F)cc(F)c2)cc(-c2ccc(C(F)(F)F)cc2)c1` (stereo not given), for which the IC50 turned out to be 740 nM.

`COc1cc(/C=C/c2nc3n(n2)CCC[C@@H]3c2cc(F)c(F)c(F)c2)ccc1-n1cnc(C)c1`: the IC50 was 14 nM.

In the case of `COc1cc(Nc2nc(Cc3ccc(Cl)cc3)c(CO)s2)ccc1-n1cnc(C)c1`, the IC50 came out at 340 nM.

Regarding `COc1cc(/C=C/c2nnc(C(C)c3ccc(F)cc3)[nH]2)ccc1-n1cnc(C)c1` (stereo not given), the IC50 turned out to be 33 nM.

As for `CC(C)CC(C(=O)O)c1cc(-c2ccc(C(F)(F)F)cc2)cc(N2CCC(C(F)(F)F)CC2)c1` (stereo not given), the IC50 came to 440 nM.

With `COc1cc(/C=C2\OC(C)(C)CN([C@@H](C)c3ccc(F)cc3)C2=O)ccc1-n1cnc(C)c1`, the IC50 is 76 nM.

Take `COc1cc(Nc2nc3n(n2)CCCC[C@H]3c2ccc(OCC(F)(F)F)cc2)ccc1-n1cnc(Cl)c1`: the IC50 stood at 5 nM.

As to `COc1cc(/C=C2\OC(C)(C)CN([C@@H](CO)c3ccc(F)cc3)C2=O)ccc1-n1cnc(C)c1`, the IC50 worked out at 16 nM.

As to `COc1cc(/C=C/c2nc(-c3ccccc3)cn2C)ccc1-n1cnc(C)c1`, the IC50 was 18 nM.

Turning to `CC(C)CC(C(=O)O)c1cc(-c2ccc(C(F)(F)F)cc2)cc(C2CCC(C(F)(F)F)N(c3cc(F)cc(C(F)(F)F)c3)C2)c1` (stereo not given), the IC50 came to 310 nM.

For `CCCCCCCCCCn1c2ccc(Cl)cc2c2ccc(C(C)C(=O)O)cc21` (stereo not given), the IC50 came out at 2900 nM.

With `COc1cc(C2CC23CCCN(C(C)c2ccc(F)cc2)C3=O)ccc1-n1cnc(C)c1` (stereo not given), the IC50 was more than 200 nM.

Turning to `COc1nc(/C=C/c2nc3n(n2)CCC[C@H]3c2ccccc2C(F)(F)F)ccc1-n1cnc(C)c1` [E-2212], the IC50 came to 17 nM.

Consider `COc1cc(/C=C/c2nc(-c3ccccc3)c[nH]2)ccc1-n1cnc(C)c1`, for which the IC50 worked out at 76 nM.

Turning to `CC(C)CCN1CC(c2cc(-c3ccc(C(F)(F)F)cc3)cc(C(CC(C)C)C(=O)O)c2)CCC1C(F)(F)F` (stereo not given), the IC50 was found to be 370 nM.

As for `CC(C)CC[C@H](c1ccc(C(F)(F)F)cc1)N1CC[C@@H](CC(=O)O)C(F)(F)[C@H]1c1ccc(C(F)(F)F)cc1`, the IC50 worked out at 710 nM.

Consider `COc1nc(/C=C/c2nc3n(n2)CCC[C@@H]3c2cc(F)c(F)c(F)c2)ccc1-n1cnc(C)c1`, for which the IC50 came out at 22 nM.

With `CC(C)CC(C(=O)O)c1cc(C#N)c(OCC2CC2)c(-c2ccc(C(F)(F)F)cc2)c1` (stereo not given), the IC50 came to 275 nM.

In the case of `COc1cc(Nc2ncn(Cc3cccc(Cl)c3)n2)ccc1-n1cnc(C)c1`, the IC50 is 130 nM.

With `COc1cc(-c2cn(C(F)(F)c3ccc(C(F)(F)F)cc3)nn2)ccc1-n1cnc(C)c1`, the IC50 came to 2240 nM.

As for `CC(C)CCN(Cc1cc(-c2ccc(C(F)(F)F)cc2)cc(C(CC(C)C)C(=O)O)c1)c1ccc(C(F)(F)F)cc1` (stereo not given), the IC50 was determined as 250 nM.

For `COc1cc(NC(=O)C(C)N2CCc3ccc(Br)cc3C2)ccc1-c1ccnc(C)c1` (stereo not given), the IC50 was 181 nM.

Regarding `COc1cc(Nc2nc3n(n2)CCCC[C@@H]3c2ccc(OCC(F)(F)F)cc2)ccc1-n1cnc(Cl)c1`, the IC50 stood at 10 nM.

As for `COc1cc(Nc2cccc3c2nc(-c2ccc(F)cc2)n3C(C)C)ccc1-c1ccnc(C)c1`, the IC50 was determined as 39 nM.

As for `COc1cc(-c2cn(CC(=O)N(CC(F)(F)F)c3ccc(F)c(Cl)c3)nn2)ccc1-n1cnc(C)c1`, the IC50 came to 84 nM.

With `COc1nc(/C=C/c2nc3n(n2)CCC[C@@H]3c2ccc(F)cc2)ccc1-n1cnc(C)c1`, the IC50 worked out at 37 nM.

As for `Cc1cn(-c2ccc(Nc3ncc4c(n3)C(c3ccccc3)CCC4)cc2F)cn1` (stereo not given), the IC50 stood at 130 nM.

Consider `CC(C)c1cc(C(C)C)c(S(=O)(=O)n2c3ccccc3c3ccc(OCC(=O)O)cc32)c(C(C)C)c1`, for which the IC50 was 7500 nM.

As to `COc1cc(C2=NOC3(CCCN(C(C)c4ccc(F)cc4)C3=O)C2)ccc1-n1cnc(C)c1` (stereo not given), the IC50 is more than 200 nM.

On to `COc1cc(/C=C/c2nc3n(n2)CCC[C@@H]3c2ccccc2)ccc1-n1cnc(C)c1`, for which the IC50 turned out to be 11 nM.

On to `COc1cc(Nc2nc(C)cc(Oc3ccc(Cl)cc3)n2)ccc1-n1cnc(C)c1`, for which the IC50 was found to be 380 nM.

Turning to `COc1cc(Nc2nc3c(c(COC4CCCC4)n2)COCC3)ccc1-n1cnc(C)c1`, the IC50 was 22 nM.

In the case of `COc1nc(-c2nc3n(n2)CCC[C@@H]3c2cc(N(CC3CC3)CC(F)(F)F)ccc2Cl)ccc1-n1cnc(C)c1`, the IC50 came out at 6 nM.

Consider `COc1cc(C(=O)c2c(OC)cnn(C(C)c3ccccc3)c2=O)ccc1-n1cnc(C)c1` (stereo not given), for which the IC50 was determined as 2500 nM.

On to `COc1cc(/C=C/c2nc3n(n2)CCC[C@@H]3c2ccc(C(F)(F)F)cc2)ccc1-n1cnc(C)c1`, for which the IC50 worked out at 31 nM.

`COc1cc(Nc2nc(C)cc(Nc3ccc(Cl)cc3)n2)ccc1-n1cnc(C)c1`: the IC50 was found to be 70 nM.

Regarding `COc1cc(Nc2c(OC)cnn(C(C)c3ccccc3)c2=O)ccc1-n1cnc(C)c1` (stereo not given), the IC50 was 3100 nM.

Take `COc1cc(Nc2nc3n(n2)CC[C@@](C)(O)C[C@@H]3c2ccc(F)cc2)ccc1-n1cnc(Cl)c1`: the IC50 was determined as 2 nM.

Turning to `CC(C(=O)O)c1ccc2c(c1)[nH]c1ccc(Cl)cc12` (stereo not given) [CARPROFEN], the IC50 amounted to 76000 nM.

With `COc1cc(Nc2nc3c(s2)CCCC3c2ccccc2)ccc1-n1cnc(C)c1` (stereo not given), the IC50 came out at 40 nM.

For the compound `COc1cc(Nc2ccnn(Cc3ccc(F)cc3)c2=O)ccc1-n1cnc(C)c1`, the IC50 is 345 nM.

Consider `CC(C)CCN(Cc1ccc(C(F)(F)F)cc1)Cc1cc(-c2ccc(C(F)(F)F)cc2)cc(C(CC(C)C)C(=O)O)c1` (stereo not given), for which the IC50 is 220 nM.
